According to the NIST ThermoML archive (doi:10.1021/je301103d):
± gives the expanded uncertainty stated by the source.

Columns and labels:
[1] = 101.33 kPa, Liquid; for viscosity: Cone and plate viscometry; for mass density: Vibrating tube method; for electrical conductivity: conductivity meter (DDJS-308A)
[2] = refractive index (Na D-line) (dimensionless); conditions: 101.33 kPa, Liquid, Standard Abbe refractometry

C[C@H](N)C(=O)[O-].C[N+](C)(C)CCO [2-hydroxy-N,N,N-trimethylethanaminium L-alaninate]
Conditions	electrical conductivity, [1] [S/m]	mass density, [1] [kg/m3]	refractive index, [2]	viscosity, [1] [mPa·s]
293.15 K	–	–	1.5146 ± 0.0011	–
298.15 K	0.00213 ± 7e-05	1112.94 ± 2	1.514 ± 0.0011	385.6 ± 45
303.15 K	0.00577 ± 0.00018	1110.07 ± 2	1.5127 ± 0.0011	234.9 ± 27
308.15 K	0.00907 ± 0.00027	1107.01 ± 2	1.5118 ± 0.0011	136.8 ± 15
313.15 K	0.0126 ± 0.00038	1104.04 ± 2	1.5105 ± 0.0011	89 ± 9.9
318.15 K	0.017 ± 0.00051	1101.21 ± 2	1.5094 ± 0.0011	51.8 ± 5.7
323.15 K	0.0249 ± 0.00075	1098.37 ± 2	1.5084 ± 0.0011	31.5 ± 3.5
328.15 K	0.0309 ± 0.00093	1095.54 ± 2	1.5072 ± 0.0011	21.5 ± 2.4
333.15 K	0.0397 ± 0.0012	1092.69 ± 2	1.506 ± 0.0011	14 ± 1.5
338.15 K	0.0518 ± 0.0016	1089.85 ± 2	1.5052 ± 0.0011	10 ± 1.1
343.15 K	0.0655 ± 0.002	1087.04 ± 2	1.5041 ± 0.0011	7.4 ± 0.8
348.15 K	0.0822 ± 0.0025	1084.27 ± 2	–	5.7 ± 0.6
353.15 K	0.101 ± 0.003	1081.51 ± 2	–	4.4 ± 0.5

C[N+](C)(C)CCO.O=C([O-])[C@@H]1CCCN1 [2-hydroxy-N,N,N-trimethylethanaminium L-prolinate]
Conditions	electrical conductivity, [1] [S/m]	mass density, [1] [kg/m3]	refractive index, [2]	viscosity, [1] [mPa·s]
293.15 K	–	–	1.5419 ± 0.0011	–
298.15 K	3e-05 ± 1e-05	1121.04 ± 2	1.5408 ± 0.0011	10644 ± 1600
303.15 K	0.00013 ± 1e-05	1118.21 ± 2	1.5402 ± 0.0011	5437.3 ± 770
308.15 K	0.00035 ± 1e-05	1115.35 ± 2	1.539 ± 0.0011	2824.6 ± 380
313.15 K	0.0007 ± 2e-05	1112.49 ± 2	1.5379 ± 0.0011	1515.3 ± 190
318.15 K	0.0013 ± 4e-05	1109.61 ± 2	1.5367 ± 0.0011	839.1 ± 100
323.15 K	0.00204 ± 6e-05	1106.69 ± 2	1.5355 ± 0.0011	463.5 ± 55
328.15 K	0.00291 ± 9e-05	–	1.5344 ± 0.0011	307 ± 36
333.15 K	0.00435 ± 0.00013	1100.61 ± 2	1.5329 ± 0.0011	163.7 ± 18
338.15 K	0.00552 ± 0.00017	1097.81 ± 2	1.5317 ± 0.0011	114 ± 13
343.15 K	0.00649 ± 0.00019	1095.03 ± 2	1.5306 ± 0.0011	70.1 ± 7.8
348.15 K	0.00779 ± 0.00023	1092.12 ± 2	–	46.3 ± 5.1
353.15 K	0.00941 ± 0.00028	1089.39 ± 2	–	33.7 ± 3.7

C[N+](C)(C)CCO.N[C@@H](CO)C(=O)[O-] [2-hydroxy-N,N,N-trimethylethanaminium L-serinate]
Conditions	electrical conductivity, [1] [S/m]	mass density, [1] [kg/m3]	refractive index, [2]	viscosity, [1] [mPa·s]
293.15 K	–	–	1.5447 ± 0.0011	–
298.15 K	0.00093 ± 3e-05	1191.51 ± 2	1.5429 ± 0.0011	11544 ± 1700
303.15 K	0.00145 ± 4e-05	1188.65 ± 2	1.5416 ± 0.0011	6543.1 ± 930
308.15 K	0.00229 ± 7e-05	1185.79 ± 2	1.5408 ± 0.0011	3793.3 ± 520
313.15 K	0.00359 ± 0.00011	1182.9 ± 2	1.5397 ± 0.0011	2186.5 ± 290
318.15 K	0.00553 ± 0.00017	1179.92 ± 2	1.5388 ± 0.0011	1306 ± 160
323.15 K	0.00833 ± 0.00025	1176.87 ± 2	1.5382 ± 0.0011	811.5 ± 99
328.15 K	0.0122 ± 0.00037	1173.97 ± 2	1.5366 ± 0.0011	522.9 ± 62
333.15 K	0.0175 ± 0.00053	1171.2 ± 2	1.5349 ± 0.0011	346.6 ± 40
338.15 K	0.0266 ± 0.0008	1168.38 ± 2	1.5341 ± 0.0011	237.7 ± 27
343.15 K	0.037 ± 0.0011	1165.5 ± 2	1.5326 ± 0.0011	167.5 ± 19
348.15 K	0.0495 ± 0.0015	1162.54 ± 2	–	120.1 ± 13
353.15 K	0.0688 ± 0.0021	1159.37 ± 2	–	90.2 ± 10

C[N+](C)(C)CCO.NCC(=O)[O-] [2-hydroxy-N,N,N-trimethylethanaminium glycinate]
Conditions	electrical conductivity, [1] [S/m]	mass density, [1] [kg/m3]	refractive index, [2]	viscosity, [1] [mPa·s]
293.15 K	–	–	1.5238 ± 0.0011	–
298.15 K	0.00677 ± 0.00021	1145.2 ± 2	1.5224 ± 0.0011	182.3 ± 21
303.15 K	0.0104 ± 0.00031	1142.31 ± 2	1.5213 ± 0.0011	119.9 ± 13
308.15 K	0.0147 ± 0.00044	1139.43 ± 2	1.5204 ± 0.0011	84.3 ± 9.3
313.15 K	0.022 ± 0.00066	1136.7 ± 2	1.5194 ± 0.0011	50.2 ± 5.6
318.15 K	0.0292 ± 0.00088	1133.97 ± 2	1.5182 ± 0.0011	29.4 ± 3.3
323.15 K	0.0388 ± 0.0012	1131.22 ± 2	1.5171 ± 0.0011	19.9 ± 2.2
328.15 K	0.0497 ± 0.0015	1128.46 ± 2	1.5158 ± 0.0011	14.3 ± 1.6
333.15 K	0.0609 ± 0.0018	1125.7 ± 2	1.5148 ± 0.0011	10.4 ± 1.1
338.15 K	0.0781 ± 0.0024	1122.93 ± 2	1.5137 ± 0.0011	7.2 ± 0.8
343.15 K	0.0993 ± 0.003	1120.22 ± 2	1.5125 ± 0.0011	5.5 ± 0.6
348.15 K	0.122 ± 0.0037	1117.53 ± 2	–	4.3 ± 0.5
353.15 K	0.15 ± 0.0045	1114.83 ± 2	–	3.5 ± 0.4

C[N+](C)(C)CCO.NCCC(=O)[O-] [2-hydroxy-N,N,N-trimethylethanaminium β-alaninate]
Conditions	electrical conductivity, [1] [S/m]	mass density, [1] [kg/m3]	refractive index, [2]	viscosity, [1] [mPa·s]
293.15 K	–	–	1.5322 ± 0.0011	–
298.15 K	0.00071 ± 2e-05	1120.29 ± 2	1.5313 ± 0.0011	5092.1 ± 710
303.15 K	0.00143 ± 4e-05	1117.51 ± 2	1.5306 ± 0.0011	3022.2 ± 400
308.15 K	0.00268 ± 8e-05	1114.55 ± 2	1.5294 ± 0.0011	1820.4 ± 230
313.15 K	0.00494 ± 0.00015	1111.77 ± 2	1.5285 ± 0.0011	1146.2 ± 140
318.15 K	0.00907 ± 0.00027	1108.98 ± 2	1.5277 ± 0.0011	723.2 ± 88
323.15 K	0.0134 ± 0.0004	1106.2 ± 2	1.5266 ± 0.0011	470.7 ± 56
328.15 K	0.0178 ± 0.00053	1103.43 ± 2	1.526 ± 0.0011	322.4 ± 37
333.15 K	0.0227 ± 0.00068	1100.63 ± 2	1.5249 ± 0.0011	220.7 ± 25
338.15 K	0.0295 ± 0.00089	1097.83 ± 2	1.5238 ± 0.0011	155.9 ± 18
343.15 K	0.0379 ± 0.0011	1095.04 ± 2	1.5225 ± 0.0011	112 ± 12
348.15 K	0.0496 ± 0.0015	1092.32 ± 2	–	79.3 ± 8.8
353.15 K	0.0615 ± 0.0019	1089.6 ± 2	–	56.7 ± 6.3
